For 13 molecules, Ki results are on record in ChEMBL document CHEMBL1131505, “(+)-cis-N-ethyleneamino-N-normetazocine derivatives. Novel and selective sigma ligands with antagonist properties” (J Med Chem, 1998).

Test [1] addresses T1, Opioid receptor (Rattus norvegicus, UniProt P33533+P34975+P33535). The experiment in a line: Inhibition of [3H]naloxone binding to Opioid receptors of rat brain membranes. It is filed as cell membranes, Membrane.
The next test has as its target Sigma 2 receptor. The experiment in a line: Inhibition of [3H]DTG binding to sigma-2 sites of guinea pig brain membranes.
The target in test [2] is Serotonin 2 (5-HT2) receptor. As to the kind of experiment: Inhibition of [3H]ketanserin binding to 5-hydroxytryptamine 2 receptor of guinea pig frontal cortex membranes. It is filed as tissue-based, Cavia porcellus.
Test [3] has as its target T2, D(2) dopamine receptor (Rattus norvegicus, UniProt P61169). The experiment in a line: Inhibition of [3H]spiroperidol binding to Dopamine receptor D2 of rat striatal membranes. It is filed as cell membranes, Membrane.
Test [4] concerns the target T3, Muscarinic acetylcholine receptor M2 (Rattus norvegicus, UniProt P10980).
T3 sequence (P10980 whole entry): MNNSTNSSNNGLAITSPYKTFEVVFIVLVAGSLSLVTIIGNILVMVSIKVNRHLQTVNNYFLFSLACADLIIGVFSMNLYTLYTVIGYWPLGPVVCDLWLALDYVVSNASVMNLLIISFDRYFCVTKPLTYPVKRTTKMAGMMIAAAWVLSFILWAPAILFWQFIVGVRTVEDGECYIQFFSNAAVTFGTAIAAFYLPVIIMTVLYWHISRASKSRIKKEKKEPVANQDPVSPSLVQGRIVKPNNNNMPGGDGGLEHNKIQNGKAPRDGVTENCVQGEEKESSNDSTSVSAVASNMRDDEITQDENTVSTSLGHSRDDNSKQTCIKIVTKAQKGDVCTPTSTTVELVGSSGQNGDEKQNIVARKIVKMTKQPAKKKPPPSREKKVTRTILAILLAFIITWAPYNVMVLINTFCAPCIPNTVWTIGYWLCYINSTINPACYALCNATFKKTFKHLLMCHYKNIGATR
The experiment in a line: Inhibition of [3H]N-methylscopolamine binding to Muscarinic acetylcholine receptor M2 of rat heart membranes. In kind it is cell membranes, Membrane.

The nature of test [5]: Compound was tested for its binding affinity towards PCP receptor in rat membranes in the presence of [3H]-(+)-SKF- 10,047. In kind it is cell membranes.
Test [6] concerns the target T1, Opioid receptor. As to the kind of experiment: Compound was tested for its binding affinity towards Opioid receptors in rat membranes in the presence of [3H]naloxone. In kind it is cell membranes.
For test [7], the target named is T2, D(2) dopamine receptor. The experiment in a line: Binding affinity towards Dopamine receptor D2 in the rat striatal membranes using [3H]spiroperidol. In kind it is cell membranes, Striatum, Membrane.

T2 sequence (P61169 whole entry): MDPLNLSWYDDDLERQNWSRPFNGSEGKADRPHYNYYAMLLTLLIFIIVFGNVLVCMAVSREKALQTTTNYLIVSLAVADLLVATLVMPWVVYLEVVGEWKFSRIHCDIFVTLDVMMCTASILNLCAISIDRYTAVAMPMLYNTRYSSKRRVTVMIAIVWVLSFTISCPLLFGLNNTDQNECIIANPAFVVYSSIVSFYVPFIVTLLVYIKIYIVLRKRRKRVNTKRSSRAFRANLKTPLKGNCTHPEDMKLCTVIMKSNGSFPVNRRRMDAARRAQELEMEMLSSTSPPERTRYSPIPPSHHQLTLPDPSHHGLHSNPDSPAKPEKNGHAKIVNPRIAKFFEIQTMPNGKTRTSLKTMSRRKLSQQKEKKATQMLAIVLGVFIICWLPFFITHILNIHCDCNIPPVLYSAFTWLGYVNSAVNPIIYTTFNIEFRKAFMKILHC

As to `C[C@@H]1[C@@H]2Cc3ccc(O)cc3[C@]1(C)CCN2CCNc1ccccc1`, the Ki at Opioid receptor [1] stood at 0.0798 µM; on Sigma 2 receptor, 0.111 µM.

Turning to `C[C@@H]1[C@@H]2Cc3ccc(O)cc3[C@]1(C)CCN2CCN1CCOCC1`, the Ki in test [2] is more than 10 µM; on D(2) dopamine receptor [3], more than 10 µM; in test [4], 0.419 µM; at Opioid receptor [1], 8.168 µM; in test [5], more than 1 µM; on Sigma 2 receptor, 0.3 µM.

For `C[C@@H]1[C@@H]2Cc3ccc(O)cc3[C@]1(C)CCN2CCN(C)c1ccccc1`, the inhibition constant (Ki) on Opioid receptor [1] was 0.0288 µM; at Sigma 2 receptor, 0.124 µM.

For the molecule `CCN(CCN1CC[C@@]2(C)c3cc(O)ccc3C[C@H]1[C@H]2C)c1ccccc1`, the Ki worked out at 0.211 µM on Opioid receptor [1] and 0.151 µM at Sigma 2 receptor.

As to `C[C@@H]1[C@@H]2Cc3ccc(O)cc3[C@]1(C)CCN2CCNCc1ccccc1`, the Ki turned out to be 0.366 µM at Opioid receptor [6] and 0.187 µM on Sigma 2 receptor.

For `C[C@@H]1[C@@H]2Cc3ccc(O)cc3[C@]1(C)CCN2CCN1CCCCCC1`, the Ki in test [2] was more than 10 µM; at D(2) dopamine receptor [3], more than 10 µM; in test [4], 1.84 µM; on Opioid receptor [1] it was 9.128 µM; in test [5], 0.0502 µM; at Sigma 2 receptor it was 0.151 µM.

Consider `C[C@@H]1[C@@H]2Cc3ccc(O)cc3[C@]1(C)CCN2CCN(C)C`, for which the Ki in test [2] was more than 10 µM; at D(2) dopamine receptor [3], more than 10 µM; in test [4], more than 10 µM; on Opioid receptor [1], 2.888 µM; in test [5], 3.38 µM; on Sigma 2 receptor, 0.347 µM.

Regarding `C[C@@H]1[C@@H]2Cc3ccc(O)cc3[C@]1(C)CCN2CCNC1CCCCC1`, the Ki is more than 10 µM in test [2]; more than 10 µM at D(2) dopamine receptor [3]; more than 10 µM in test [4]; 1.466 µM on Opioid receptor [1]; more than 10 µM in test [5]; 0.328 µM on Sigma 2 receptor.

Take `CCN(CC)CCN1CC[C@@]2(C)c3cc(O)ccc3C[C@H]1[C@H]2C`: the Ki in test [2] was more than 10 µM; at D(2) dopamine receptor [3], more than 10 µM; in test [4], 1.99 µM; on Opioid receptor [1] it was 12.29 µM; in test [5], 7.65 µM; on Sigma 2 receptor, 0.378 µM.

As to `C[C@@H]1[C@@H]2Cc3ccc(O)cc3[C@]1(C)CCN2CCN1CCCCC1`, the Ki in test [2] was more than 10 µM; at D(2) dopamine receptor [7] it was more than 10 µM; in test [4], 7.8 µM; on Opioid receptor [1], 12 µM; in test [5], more than 10 µM; at Sigma 2 receptor, 0.114 µM.

Turning to `C[C@@H]1[C@@H]2Cc3ccc(O)cc3[C@]1(C)CCN2CCN1CCCC1`, the inhibitory constant (Ki) was more than 10 µM in test [2]; more than 10 µM at D(2) dopamine receptor [3]; 1.95 µM in test [4]; 3.8 µM at Opioid receptor [1]; more than 10 µM in test [5]; 0.26 µM at Sigma 2 receptor.

For `CC(C)=CCN1CC[C@]2(C)c3cc(O)ccc3C[C@H]1[C@H]2C` (single isomer, unassigned) [(+)-PENTAZOCINE], the Ki at Opioid receptor [6] worked out at 2.37 µM; in test [5], 4.32 µM.

`C=CCN1CC[C@]2(C)c3cc(O)ccc3CC1[C@@H]2C` (single isomer, unassigned; (+)): the Ki was more than 10 µM in test [2]; more than 10 µM at D(2) dopamine receptor [3]; more than 10 µM in test [4]; 1.9 µM on Opioid receptor [6]; 0.448 µM in test [5].

A word on the Ki: it is a measure of affinity in units of concentration, obtained from inhibition or displacement.
